In BigSolDB 2.1:

COc1cc(Cc2cnc(N)nc2N)cc(OC)c1OC
solubility (mole fraction)
Conditions | 293.15 K | 298.45 K | 303.45 K | 308.15 K | 312.95 K | 318.65 K | 322.65 K
in acetonitrile | 0.00035 | 0.000437 | 0.000534 | 0.000664 | 0.000809 | 0.00103 | 0.00127
in ethanol | 0.00071 | 0.00092 | 0.00112 | 0.00134 | 0.00173 | 0.00226 | 0.00304
in ethyl acetate | 0.000276 | 0.000332 | 0.000398 | 0.000481 | 0.000606 | 0.000773 | 0.000966
in isopropanol | 0.000227 | 0.000294 | 0.000434 | 0.000543 | 0.000764 | 0.00106 | 0.00141
in water | 2e-05 | 2.49e-05 | 3.02e-05 | 3.68e-05 | 4.68e-05 | 6.05e-05 | 7.14e-05
